In US10526318B2, “Oral cannabinoid receptor modulator formulations” (THE CLEVELAND CLINIC FOUNDATION, priority 2018, dated 2020):

Experiments:
[1] = MDA7 GB/IB non-sink microcentrifuge dissolution test; assay type: physicochemical
Procedure: In the first round of testing, experiments were carried out using crystalline API, 25% MDA7: HPMCAS-H, 25% MDA7: Eudragit L100, 25/65/10%:HPMCAS-M:TPGS, 25/65/10% MDA7:PVP VA64:TPGS, and 40% MDA7: HPMCAS-M. The results of these experiments are shown in FIG. 1, and Table 1 below.

[2] = Microcentrifuge dissolution test, second round of SDD testing; assay type: physicochemical; conditions: 400 μgA/mL in 0.5 wt % SIF in PBS, pH 6.5, 37° C.
Procedure: In the second round of testing, experiments were carried out using crystalline API (active pharmaceutical ingredient; MDA7), 10% MDA7 in HPMCAS-M SDD, 25% MDA7 in HPMCAS-M SDD, 25% MDA7 in HPMCAS-L SDD, and 25% MDA7:PVP VA64 SDD. The test conditions were 400 μgA/mL in 0.5 wt % SIF in PBS, pH 6.5, 37° C.

male beagle dogs = conditions: intravenous, 5 mg/mL in 20% HPβCD, Dog1001 and Dog1002
Procedure: The mixture was vortexed then stirred at room temperature for 93 minutes forming a clear yellow solution at a concentration of 5 mg/mL for intravenous dosing. The intravenous dose solution was sterile-filtered using a Millex GV PVDF 0.22 μm filter (Millipore) prior to dosing.
Using clean technique, an aliquot of the 5 mg/mL Group 1 formulation (2.8 mL) was combined with 20% HPβCD (4.2 mL), and vortexed to form a clear yellow solution at a concentration of 2 mg/mL for intravenous dosing.
A total of fifteen male beagle dogs (plus one spare animal) were selected from the Test Facility's colony of non-naïve animals. The animals were assigned to the study based on acceptable health as determined by a Test Facility veterinarian following a pre-study health status check. The pre-study health status check included a physical exam, serum chemistry and hematology evaluations. The animals were placed into five groups of three animals per group. All animals were fasted overnight prior to dose administration.
Each animal in Group 1 received the prepared test article as a 30-60 second intravenous injection by way of a temporary percutaneous catheter placed in a peripheral vein. Immediately after each intravenous dose, the catheter was flushed with 3 mL of saline prior to removal. […]

mice = conditions: cited from earlier work

Row | SMILES | AUC90 [1] | C90 [1] [µg/mL] | C1200 [1] [µg/mL] | Cmax90 [1] [ng/mL] | Ultra90 [1] [µg/mL] | Ultra1200 [1] [µg/mL] | AUC90 [2] | C90 [2] [µg/mL] | C1200 [2] [µg/mL] | Cmax90 [2] [ng/mL] | Ultra90 [2] [µg/mL] | Ultra1200 [2] [µg/mL] | clinical effects observed following dosing (male beagle dogs) | effect on food intake (mice)
1 | CC1(Cc2ccccc2)COc2cc(C(=O)N3CCCCC3)ccc21 (centres unmarked) [Crystalline API, 3-benzyl-3-methyl-2,3-dihydrobenzofuran-6-carboxylic acid-piperidine amide] | 2,360 min*μg/mL | 31 | 31 | 31000 | 31 | 31 | 2,010 min*μg/mL | 24 | 28 | 27000 | 20 | 24 | adverse clinical effects | –
2 | Cc1c(C(=O)NN2CCCCC2)nn(-c2ccc(Cl)cc2Cl)c1-c1ccc(Cl)cc1 [SR141716A] | – | – | – | – | – | – | – | – | – | – | – | – | – | reduces food intake
